Measured values: patent US20100330029A1, “Cancer Treatments with Radiation and Immunocytokines” (Merck Patent GmbH, priority 2008, published 2010)

What was measured:
Format in all cases: in vivo, mice
[1] = system: CT26/KSA colon carcinoma; test: tumor growth assay, CT26/KSA model; details: Experiments CT26-1-3; 3 or 4 Gy day 0 followed by EMD521873 5 mg/kg i.v. days 2, 3, 4
Text: CT26 cells, a murine colon epithelial cell line derived by intrarectal injection of N-nitroso-N-methylurethane in BALB/C mice, were transfected to express the human KS antigen (KSA or EpCAM) that was cloned by PCR and expressed in parental cells using a retroviral vector (Gillies 1998). CT26/KSA cells were maintained in DMEM, supplemented with 10% heat inactivated fetal bovine serum, L-glutamine, vitamins, sodium pyruvate, non-essential amino acids, penicillin/streptomycin and Geneticin® (G418) (Life Technologies, Inc.) at 37° C. and 7% CO2. G418 was added to maintain KSA expression. CT26 and CT26/KSA cells were implanted in female BALB/C mice.
For the tumor growth assay, cells growing exponentially in culture were injected as a single cell suspension in 100 μl of PBS intramuscularly into the upper legs of the mice. […] Thereafter, animal survival was monitored. […] Mice were treated on days 0 to 6 and day 17, and tumor size was measured twice weekly for the duration of the study.
Tumors were measured with calipers in three dimensions for the duration of the experiment. Tumor volumes were calculated using the equation: […]
The effect of a single dose of radiation given on day 0 followed by i.v. dosing of the immunocytokine (5 mg/kg) was evaluated in three subcutaneous syngeneic tumor models (CT26 colon carcinoma, CT26/KSA colon carcinoma which expresses human EpCAM, and B16 melanoma). […]

[2] = system: CT26-specific T-cells; test: ELISPOT assay for IFNγ induction in splenocytes, CT26/KSA model; details: radiation followed by EMD521873, compared to either therapy alone
Experimental: Enzyme-linked immunospot C (ELISPOT) assays for IFNγ induction in splenocytes were conducted by first coating ELISPOT plates with an anti-IFNγ antibody (murine IFNγ kit, BD Biosciences). Splenocytes from treated mice were added to the plates and incubated with an AH1:A5 peptide to stimulate IFNγ release from CT26-specific T-cells. Biotinylated IFNγ detection Ab and streptavidin-HRP were added to the plates. Resultant spots from individual IFNγ-producing lymphocytes were counted using a Zeiss® KS-ELISPOT plate reader.

[3] = system: T cell and T cell activation-associated genes in the tumor; test: qPCR gene profiling of tumors, CT26/KSA model
Experimental: (§1) Gene profiling of tumors was analyzed using excised tumor tissues placed in RNAlater® RNA stabilizing reagent upon harvest. Total RNA was prepared with an RNeasy® kit (Qiagen) and cDNA was prepared with the Superscript® III kit for qPCR (Life Technologies, Inc.). qPCR reactions were performed on an ABI7500 instrument in a standardized fashion and relative changes in gene expression were analyzed using the ddCt method (efficiency factor 95%). Housekeeping genes used for comparison included ACTB, B2M and HPRT1.

[4] = system: immune response markers in the tumor; test: immune marker gene expression profiles in B16 tumors; details: 10 Gy d0 followed by EMD521873, compared to either therapy alone
Experimental: as §1
In addition, there was a moderate, but significant increase in certain immune response markers in the tumor as measured by immune marker gene expression profiles with CD25, TNFA, TYROBP, ICOS and CD45 being modulated >4-fold compared to either therapy alone.

[5] = system: immune markers in LLC tumors; test: immune gene expression profiling of LLC tumors; details: for CD3 gene expression increase / CD8 gene expression increase / CISH gene expression increase / CXCL9 gene expression increase / IFNg gene expression increase: LLC-6; for CD3 gene expression increase: EMD521873+chemoradiation vs EMD521873 or chemoradiation alone; for CD8 gene expression increase / CISH gene expression increase / CXCL9 gene expression increase / IFNg gene expression increase: EMD521873+chemoradiation vs either alone
Experimental: as §1

[6] = LLC-13, radiation in the 2 weeks prior to EMD521873
[7] = LLC-13, radiation in the first week followed by EMD521873

Substance: dI-NHS76γ2(h)(FN>AQ)-ala-IL2(D20T) [EMD521873]
- anti-tumor effect (complete regressions) [1]: a majority of the animals achieved complete regressions
- increase in T cell response (ELISPOT, endogenous CT26 antigen) [2]: > 4 fold
- levels of FoxP3 gene expression in the tumor ([3]; radiation followed by EMD521873 (combination)): did not increase
- CD8, Granzyme B, and IFNγ gene expression increase in the tumor ([3]; radiation followed by EMD521873, compared to either EMD521873 or radiation alone): 3.5-4.6 fold
- CD25, TNFA, TYROBP, ICOS and CD45 gene expression modulated in the tumor [4]: > 4 fold
- gene expression profiling, panel of immune markers ([5]; Experiments LLC-1, LLC-2, radiation plus EMD521873 compared to either alone): increases in markers for T cell, T cell activation, lymphocyte trafficking, and Th1 response
- CD3 gene expression increase ([5]; flank tumor (non-irradiated)): 8 fold
- CD8 gene expression increase ([5]; flank tumor): 3.5 fold
- CISH gene expression increase ([5]; flank tumor): 3.2 fold
- CXCL9 gene expression increase ([5]; flank tumor): 14 fold
- IFNg gene expression increase ([5]; flank tumor): 7 fold
- CD3 gene expression increase ([5]; leg tumor (irradiated)): > 20 fold
- CD8 gene expression increase ([5]; leg tumor): 10 fold
- CISH gene expression increase ([5]; leg tumor): 5.8 fold
- CXCL9 gene expression increase ([5]; leg tumor): 10.5 fold
- IFNg gene expression increase ([5]; leg tumor): 14 fold
- 12 immune expression markers (GZMB, PDCD1, NKG7, NKG2D, CD3G, ITGAL, CD122, CD8A, FASL, CTLA4, INOS, CD25) upregulated ([5]; LLC-8, LLC-9, EMD521873 plus chemoradiation relative to the maximal level achieved in the monotherapies): 3 to 6 times
- immune gene response profile ([5]; LLC-11, EMD521873 followed by radiation, compared to EMD521873 or either radiation regimen alone): not significantly affected
- immune response in the tumor (immune gene profiling) ([5]; LLC-12, EMD521873 during the 2nd week of a 3 week course of radiation vs 1 week or 2 week course): blunted
- CD3 fold-induction compared to untreated control [5, 6]: ~14 fold
- CD8 fold-induction compared to untreated control [5, 6]: ~6 fold
- CD25 fold-induction compared to untreated control [5, 6]: ~22 fold
- IFNγ fold-induction compared to untreated control [5, 6]: ~10 fold
- granzyme fold-induction compared to untreated control [5, 6]: ~2 fold
- perforin fold-induction compared to untreated control [5, 6]: ~5 fold
- immune response gene profile in the tumor ([5]; LLC-13, radiation in the 3 weeks prior to EMD521873): nearly complete abrogation of the immune response
- CD3 fold-induction compared to untreated control [5, 7]: ~50 fold
- CD8 fold-induction compared to untreated control [5, 7]: ~19 fold
- CD25 fold-induction compared to untreated control [5, 7]: ~45 fold
- IFNγ fold-induction compared to untreated control [5, 7]: ~22 fold
- granzyme fold-induction compared to untreated control [5, 7]: ~22 fold
- perforin fold-induction compared to untreated control [5, 7]: ~8 fold
